# No end group written: not given here.
# Experiments:
# [1] = tested on: spinorphin rabbit antibody; experiment: Competitive enzyme immunoassay, cross reactivity of spinorphin analogues; assay type: binding; conditions: for detection by the method of the present invention (reaction with spinorphin antibody): analogue as competitive compound for immobilized spinorphin; for IC50: competition with spinorphin immobilized on plate for spinorphin rabbit antibody; for Cross reactivity: ratio of spinorphin relative to IC50
# in vitro = conditions: bovine, cerebrospinal or other body fluid
# Description: A test was carried out to confirm whether the activity of spinorphin could be retained through the period from the step (B) to the step (E). Spinorphin (1 μg/mL) in TBS was dissolved in bovine cerebrospinal fluid. The cerebrospinal fluid was allowed to stand at room temperature for various time periods. The reaction was stopped, and the amount of spinorphin was measured according to the method mentioned in the above (2).
detection by the method of the present invention (reaction with spinorphin antibody) [1],Substance,also measured
,"LVVYPWT [Spinorphin, Leu-Val-Val-Tyr-Pro-Trp-Thr]","remaining at 1 h, 1 μg/mL (in vitro): 98.8 ± 0.98%; IC50 [1]: 0.00064 ± 0.00061 µg/mL; Cross reactivity [1]: 1"
could not be detected,Pro-Trp-Thr [PWT],
could not be detected,VVYP [spinorphin analogue],
,VVYPWT,IC50 [1]: 1.6 ± 5 µg/mL; Cross reactivity [1]: 0.0004
could not be detected,VYP,
could not be detected,VYPW [spinorphin analogue],
,VYPWT,IC50 [1]: >10 µg/mL; Cross reactivity [1]: <6.4 × 10^−5
could not be detected,YPW,

Substance,detection by the method of the present invention (reaction with spinorphin antibody) [1],also measured
LVVYP [spinorphin analogue],could not be detected,
LVVYPW [spinorphin analogue],could not be detected,
VVYPW [tynorphin],could not be detected,
YPWT [hemorphin-4],could not be detected,
